Measurements as given in patent US11021479B2, “Pyridoquinazoline derivatives useful as protein kinase inhibitors” (ONCOSTELLAE, S.L., priority 2017, dated 2021).
pIC50: −log10 of the molar value.

Tests used:
Assay type in all cases: biochemical
JAK1 = biological target: T1, JAK1 (Homo sapiens, UniProt P23458); experiment: Functional assay of protein Janus kinases (Caliper mobility shift), JAK1; conditions: ATP 100 μM, incubation 150 min; read-out: JAK1 enzymatic activity (IC50) score
T1 construct: purchased Carna Biosciences 08-144
Method: (§1) The functional assays of protein Janus kinases were carried out in 384-well plates using a final volume of 30 μl. […] The reaction was reads in a “Caliper EzReader LabChip 3000” (Caliper, Hopkinton, Mass.) reader, based on electrophoretic mobility of the fluorescent substrate and the phosphorylated product.
(§2) The inhibition percentages were calculated by comparison between control reactions, for 100% of inhibition and reactions with only DMSO for 0% of inhibition.

JAK2 = biological target: T2, JAK2 (Homo sapiens, UniProt O60674); experiment: Functional assay of protein Janus kinases (Caliper mobility shift), JAK2; conditions: ATP 300 μM, incubation 30 min; read-out: JAK2 enzymatic activity (IC50) score
T2 construct: purchased Carna Biosciences 08-045
Method: as §1, §2

JAK3 = biological target: T3, JAK3 (Homo sapiens, UniProt P52333); experiment: Functional assay of protein Janus kinases (Caliper mobility shift), JAK3; conditions: ATP 8 μM, incubation 30 min; read-out: JAK3 enzymatic activity (IC50) score
T3 construct: purchased Carna Biosciences 08-046
Method: as §1, §2

TYK2 = biological target: T4, TYK2 (Homo sapiens, UniProt P29597); experiment: Functional assay of protein Janus kinases (Caliper mobility shift), TYK2; conditions: ATP 20 μM, incubation 45 min; read-out: TYK2 enzymatic activity (IC50) score
T4 construct: purchased Carna Biosciences 08-147
T4 sequence (P29597 871-1187 limits assumed): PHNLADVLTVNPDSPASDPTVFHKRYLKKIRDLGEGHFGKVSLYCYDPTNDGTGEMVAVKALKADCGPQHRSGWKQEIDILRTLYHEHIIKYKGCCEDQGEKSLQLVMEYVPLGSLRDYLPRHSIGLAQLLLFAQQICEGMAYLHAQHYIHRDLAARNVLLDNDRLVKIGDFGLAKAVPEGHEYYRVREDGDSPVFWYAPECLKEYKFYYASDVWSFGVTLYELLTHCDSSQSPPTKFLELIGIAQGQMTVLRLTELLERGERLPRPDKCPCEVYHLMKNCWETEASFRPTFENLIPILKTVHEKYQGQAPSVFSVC
Method: as §1, §2

T2 sequence (O60674 826-1132 limits assumed): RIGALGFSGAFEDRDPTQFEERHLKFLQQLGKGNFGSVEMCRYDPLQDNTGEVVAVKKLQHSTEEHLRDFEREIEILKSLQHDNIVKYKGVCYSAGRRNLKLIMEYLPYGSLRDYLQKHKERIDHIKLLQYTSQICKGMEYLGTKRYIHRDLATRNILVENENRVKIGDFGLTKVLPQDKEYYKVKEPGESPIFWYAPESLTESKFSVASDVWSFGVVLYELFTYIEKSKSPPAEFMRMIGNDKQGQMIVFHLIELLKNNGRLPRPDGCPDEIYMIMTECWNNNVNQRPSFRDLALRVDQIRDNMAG
T3 sequence (P52333 795-1124 limits assumed): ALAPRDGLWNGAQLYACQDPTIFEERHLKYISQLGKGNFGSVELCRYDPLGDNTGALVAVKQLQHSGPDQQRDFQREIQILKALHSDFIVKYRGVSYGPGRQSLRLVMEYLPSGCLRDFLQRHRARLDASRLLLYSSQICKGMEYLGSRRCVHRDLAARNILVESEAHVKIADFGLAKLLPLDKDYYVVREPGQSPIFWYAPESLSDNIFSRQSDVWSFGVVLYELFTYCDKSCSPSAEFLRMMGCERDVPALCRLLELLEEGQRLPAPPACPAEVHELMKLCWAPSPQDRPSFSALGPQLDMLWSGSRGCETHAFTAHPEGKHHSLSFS
T1 sequence (P23458 850-1154 limits assumed): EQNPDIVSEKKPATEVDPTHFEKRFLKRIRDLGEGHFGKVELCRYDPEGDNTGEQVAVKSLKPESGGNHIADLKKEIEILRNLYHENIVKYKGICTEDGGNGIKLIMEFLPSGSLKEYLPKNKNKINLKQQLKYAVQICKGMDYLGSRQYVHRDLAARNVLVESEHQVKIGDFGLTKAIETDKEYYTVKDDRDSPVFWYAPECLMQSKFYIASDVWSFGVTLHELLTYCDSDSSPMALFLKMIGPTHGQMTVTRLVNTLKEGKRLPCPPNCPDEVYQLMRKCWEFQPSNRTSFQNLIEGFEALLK

Structure (SMILES)	pIC50 (JAK1)	pIC50 (JAK2)	pIC50 (JAK3)	pIC50 (TYK2)
O=C(N[C@H]1CCCC[C@H]1O)c1cccn2c(=O)c3cc(Br)ccc3nc12 [Example 27, 2-bromo-N-((1S,2R)-2-hydroxycyclohexyl)-11-oxo-11H-pyrido[2,1-b]quinazoline-6-carboxamide]	< 6.00	< 6.00	6.00 to 7.00	6.00 to 7.00
O=C(NC1CCOCC1)c1cccn2c(=O)c3cc(C4CC4)ccc3nc12 [Example 4, 2-cyclopropyl-11-oxo-N-(tetrahydro-2H-pyran-4-yl)-11H-pyrido[2,1-b]quinazoline-6-carboxamide]	< 6.00	< 6.00	6.00 to 7.00	> 7.00
O=C(NC1CCCCC1)c1cccn2c(=O)c3cc(-c4ccccc4)ccc3nc12 [Example 28, N-cyclohexyl-11-oxo-2-phenyl-11H-pyrido[2,1-b]quinazoline-6-carboxamide]	< 6.00	< 6.00	6.00 to 7.00	6.00 to 7.00
O=C(NC1CCCC1)c1cccn2c(=O)c3cc(-c4ccncc4)ccc3nc12 [Example 32, N-cyclopentyl-11-oxo-2-(pyridin-4-yl)-11H-pyrido[2,1-b]quinazoline-6-carboxamide]	< 6.00	< 6.00	6.00 to 7.00	> 7.00
O=C(N[C@@H]1CCCC[C@H]1O)c1cccn2c(=O)c3cc(C4CC4)ccc3nc12 [Example 9, 2-cyclopropyl-N-((1R,2R)-2-hydroxycyclohexyl)-11-oxo-11H-pyrido[2,1-b]quinazoline-6-carboxamide]	< 6.00	< 6.00	6.00 to 7.00	< 6.00
O=C(NC1CCCCC1)c1cccn2c(=O)c3cc(F)ccc3nc12 [Example 24, N-cyclohexyl-2-fluoro-11-oxo-11H-pyrido[2,1-b]quinazoline-6-carboxamide]	< 6.00	< 6.00	6.00 to 7.00	6.00 to 7.00
CN1CCN(c2ccc3nc4c(C(=O)NC5CCCC5)cccn4c(=O)c3c2)CC1 [Example 35, N-cyclopentyl-2-(4-methylpiperazin-1-yl)-11-oxo-11H-pyrido[2,1-b]quinazoline-6-carboxamide]	< 6.00	< 6.00	> 7.00	6.00 to 7.00
CN1CCN(c2ccc3nc4c(C(=O)N[C@H]5CCCC[C@H]5O)cccn4c(=O)c3c2)CC1 [Example 37, N-((1S,2R)-2-hydroxycyclohexyl)-2-(4-methylpiperazin-1-yl)-11-oxo-11H-pyrido[2,1-b]quinazoline-6-carboxamide]	–	–	6.00 to 7.00	> 7.00

Further lines, results first:

pIC50 (JAK1)	pIC50 (JAK2)	pIC50 (JAK3)	pIC50 (TYK2)	Structure (SMILES)
< 6.00	< 6.00	> 7.00	> 7.00	O=C(N[C@H]1CCCC[C@H]1O)c1cccn2c(=O)c3cc(C4CC4)ccc3nc12 [Example 10, 2-cyclopropyl-N-((1S,2R)-2-hydroxycyclohexyl)-11-oxo-11H-pyrido[2,1-b]quinazoline-6-carboxamide]
< 6.00	< 6.00	> 7.00	> 7.00	C[C@]1(O)CC[C@H](NC(=O)c2cccn3c(=O)c4cc(C5CC5)ccc4nc23)CC1 [Example 6, 2-cyclopropyl-N-((1R,4R)-4-hydroxy-4-methylcyclohexyl)-11-oxo-11H-pyrido[2,1-b]quinazoline-6-carboxamide]
< 6.00	< 6.00	> 7.00	6.00 to 7.00	O=C(NC1CCC(F)(F)CC1)c1cccn2c(=O)c3cc(C4CC4)ccc3nc12 [Example 15, 2-cyclopropyl-N-(4,4-difluorocyclohexyl)-11-oxo-11H-pyrido[2,1-b]quinazoline-6-carboxamide]
< 6.00	< 6.00	> 7.00	> 7.00	CC1COCCC1NC(=O)c1cccn2c(=O)c3cc(C4CC4)ccc3nc12 (stereo not shown) [Example 5, 2-cyclopropyl-N-(3-methyltetrahydro-2H-pyran-4-yl)-11-oxo-11H-pyrido[2,1-b]quinazoline-6-carboxamide]
